Test results from patent publication US10989719B2, “Methods for treating spinocerebellar ataxia type I using RPA1” (National University Corporation Tokyo Medical and Dental …, priority 2013, dated 2021).
Entries after “also recorded” stand apart in the source; their conditions may differ.

Tested on: OK6>SCA1 flies
Experiment: Chemical therapy on hSCA1 Drosophila: lifespan on medium supplemented with CHK1 inhibitor
Type: in vivo
Conditions: adult flies
Protocol: FIG. 29 is a graph showing the results of a lifespan analysis of OK6>SCA1 flies fed on media supplemented with a CHK1 inhibitor (CHIR-124). The statistical analysis of the average values of the lifespan was performed by log-rank test.
A CHK1-specific inhibitor, CHIR-124 (manufactured by AXON MEDCHEM), was dissolved at 5 mg/mL in 1N hydrogen chloride and diluted to multiple concentrations with 0.05 N solution. Note that the medium used here was a 1:1 mixture of Instant Drosophila medium D7670 (manufactured by Sigma Aldrich) and Formula 4-24 Instant Drosophila medium (manufactured by Calolina). As a control, a medium to which an equal amount of 0.05 N hydrogen chloride solution was added was also prepared.
In this respect, whether or not the inhibition of a signal mediated by CHK1 mitigates the lifespan shortening in the SCA1 fly model was examined. Specifically, a CHK1-specific inhibitor (CHIR-124) was used. This inhibitor was added to feed (corn-meal medium) at multiple concentrations, and adult flies were fed on the feed. As a result, the lifespan of OK6>SCA1 was improved at 0.00016 mg/mL and 0.02 mg/mL (see FIG. 29). In addition, the improvement effect was more remarkable in an example where the inhibitor was given at a higher concentration. The lifespan of the flies treated with CHIR-124 at 0.02 mg/mL was elongated by 35% (see FIG. 29).

SMILES: O=c1[nH]c2ccc(Cl)cc2c(N[C@@H]2CN3CCC2CC3)c1-c1nc2ccccc2[nH]1 [CHIR-124, 4-[((3S)-1-azabicyclo[2.2.2]oct-3-yl)amino]-3-(1H-benzimidazol-2-yl)-6-chloroquinolin-2(1H)-one]
- lifespan of OK6>SCA1 (0.00016 mg/mL in feed): improved
- lifespan elongation (0.02 mg/mL in feed): 35%
- lifespan of OK6>SCA1 (0.02 mg/mL in feed): ameliorated the lifespan-shortening; also recorded: improved
